“Also recorded” adds a separate entry of the source. Read-outs that look alike come from different tables or passages of the source. Marks after values point to notes of the source that are not given here.
Experiments:
[1] = tested on: SK-UT-1 leiomyosarcoma tumor cells; type: in vivo
Method: (§1) A negative coefficient indicates greater inhibition in the combination group than expected based on the activity of the monotherapies. The more negative the coefficient, the greater the activity of the combination.
This study utilized SK-UT-1 leiomyosarcoma tumor cells implanted into the flank of athymic nude mice.
To compare tumor growth, the area under the curve comparing tumor volume vs day for each individual mouse was calculated and then averaged for each group.
(§2) Interaction coefficients were determined using the AUCs of the Day 0 to Day 25 tumor volume vs day curves. To take into account the data after Day 25, interaction coefficients were also calculated for the median time to reach 1000 mm3. A negative interaction coefficient indicates synergy.

[2] = tested on: SK-LMS-1 model; experiment: Previous study in the SK-LMS-1 model (doxorubicin, gemcitabine combinations); type: in vivo; details: Cpd 1 12.5 mg/kg biw with varying doses/regimens of doxorubicin and gemcitabine
Excerpt: (§3) Leiomyosarcoma accounts for 5-10% of soft tissue sarcomas. Typically, leiomyosarcomas have a complex karyotype and are associated with p53 mutations (Yang J, Du X, Chen K, Ylipaa A, Lazar A J, Trent J, Lev D, Pollock R, Hao X, Hunt K, Zhang W. Genetic aberrations in soft tissue leiomyosarcoma. Cancer Lett. 2009 Mar. 8; 275(1):1-8). The cell line, SK-LMS-1 has a complex karyotype and a mutated p53 gene. Chemotherapy with doxorubicin-based drug regimens such as a combination of doxorubicin and ifosfamide is the standard of care. However, these regimens usually result in cardiotoxicity, rapid development of resistance, and no significant survival advantage. In a previous study utilizing the SK-LMS-1 model, Compound 1 (Cpd 1) was tested at a constant dose (12.5 mg/kg biw) in combination with varying doses/regimens of doxorubicin and gemcitabine. […] Here, SK-LMS-1 cells were passaged for a more extended time in vivo relative to the prior study generating a more aggressive tumor model. This study tested the efficacy of Cpd 1 alone and in combination with the chemotherapeutic agents Doxil and DTIC in the treatment of mice bearing SK-LMS-1 human leiomyosarcoma tumors.

[3] = tested on: SK-LMS-1 human leiomyosarcoma tumors; type: in vivo
Excerpt: as §3, §1
as §2, with “Tumors were ˜222 mm3 in volume when dosing was initiated. […] Interaction” for “Interaction”, “28” for “25”, “28,” for “25,”, “were” for “were also”, “mm^3.” for “mm3.”
as §1

[4] = Exposure (AUC, Cmax) of Compound 1 in the mouse, free and total drug; details: in vivo, po
Method: (§4) In contrast to use of allometric conversion factors, FIGS. 6A-D summarize the pharmacokinetics of Compound 1 administration in humans, showing that a conversion factor for Compound 1 based on free drug in humans compared to free drug in mice can be derived to estimate the effective target AUC and Cmax, thus accounting for the differences in free drug between these species.
(§5) As shown by the dashed line, this predicts that the estimated dose in a human patient of about 2.0 mg/kg (biw) or higher of Compound 1 would be effective.

[5] = Predicted effective human dose from mouse exposure and measured human exposure (FIGS. 6A-D); type: in vivo; details: monotherapy, orally twice per week
Excerpt: FIGS. 6A-D summarize the pharmacokinetics of Compound 1 administered as a monotherapy in humans (as measured by AUCLast and Cmax) two times per week in the AST trial, wherein the dotted line in each figure indicates free drug concentration.
as §4, §5
As shown by the dashed line, this predicts that the estimated dose in a human patient of about 1.4 mg/kg (biw) or higher of Compound 1 would be effective.
As shown by the dashed line, this predicts that the estimated dose in a human patient of about 2.3 mg/kg (biw) or higher of Compound 1 would be effective.
As shown by the dashed line, this predicts that the estimated dose in a human patient of about 1.8 mg/kg (biw) or higher of Compound 1 would be effective.

[6] = Phase 1a clinical trial NCT02404480, safety, PK and response; type: in vivo, human; details: human, in vivo, 2.6 mg/kg, NCT02404480 PK profile, FIG. 6
Method: (§6) FIG. 5 summarizes the duration of Compound 1 treatment alone in an […] (AST) Phase 1a clinical trial (NCT02404480) of 31 evaluable patients to determine safety and pharmacokinetics. The initial human dose of 0.65 mg/kg was based on a rat model MTD of 40 mg/kg, with subsequent higher human dose ranging at 1.3 mg/kg, 2.6 mg/kg, 5.2 mg/kg, 7 mg/kg, and 10 mg/kg. The Standard 3+3 trial design, with 3 patients per cohort, allowed dose escalation for each cohort absent a dose-limiting toxicity (DLT), enabling the next cohort to be treated at the next higher dose. In the event any one patient in the cohort experienced a DLT at a particular dose, the next cohort would be treated at the same dose. A full pharmacokinetic review of each patient was taken on Day 1 and Day 29, with a partial review taken on Day 15.
(§7) NCT02404480: Phase 1 Study, open-label, first-in-human, evaluated safety and pharmacokinetic (PK) profile for use of Compound 1 in patients with advanced solid tumor (AST) cancers, determined the RP2D (recommended phase II clinical trial dose) according to escalating dose levels.
(§8) Compound 1 was administered as a […] in NCT02404480, a Phase 1a clinical trial designed to evaluate safety and PK profile for use of Compound 1 in patients with advanced solid tumor (AST) cancers.

[7] = tested on: advanced solid tumor (AST) cancers; experiment: as above; type: in vivo, human; details: 31 evaluable patients; Compound 1 alone
Method: as §6, §7, §8

[8] = Rat model MTD; details: in vivo
[9] = docetaxel 15 mg/kg IP QW6, alone or with Cpd 1 12.5 mg/kg
[10] = docetaxel 15 mg/kg IP qw6, alone or with Cpd 1 12.5 mg/kg biw6
[11] = DTIC 4 mg/kg IP tiw, alone or with Cpd 1 12.5 mg/kg PO biw
[12] = DTIC 21 mg/kg IP qd5, alone or with Cpd 1 12.5 mg/kg PO biw

Q: With `CC(=O)O[C@@]12CO[C@@H]1C[C@H](O)[C@@]1(C)C(=O)[C@H](O)C3=C(C)[C@@H](OC(=O)[C@H](O)[C@@H](NC(=O)OC(C)(C)C)c4ccccc4)C[C@@](O)([C@@H](OC(=O)c4ccccc4)[C@H]21)C3(C)C` [docetaxel] as the compound, how does the “effect on tumor growth” value ([1]; docetaxel 5 mg/kg IP BIW5.5, alone or with Cpd 1) read?
A: no efficacy as a monotherapy

Q: What about the “percent reduction in tumor volume at Day 28 (%)” value (“percent reduction … (%)” below) ([1]; docetaxel 5 mg/kg IP biw5.5 (11 doses), alone or with Cpd 1 12.5 mg/kg biw6) of the same compound?
A: 2.27%

Q: And the “median time for tumor volume for individual mice to reach 1000 mm^3” value ([1]; docetaxel 5 mg/kg IP biw5.5, alone or with Cpd 1 12.5 mg/kg biw6)?
A: 18.9 days

Q: What about the “effect on tumor growth” value ([1]; docetaxel 15 mg/kg IP QW6, alone or with Cpd 1) of the same compound?
A: tumor growth was delayed; also recorded: more effective than Cpd 1

Q: What about the “inhibition vs vehicle at Day 25” value [1, 9] of the same compound?
A: 78%

Q: What about the “mean tumor size at Day 25” value [1, 9] of the same compound?
A: 1486 mm^3

Q: And the “median time for tumor volume for individual mice to reach 1000 mm^3 (Days)” value [1, 10]?
A: 50.1* Days

Q: What about the “percent reduction … (%)” value [1, 10] of the same compound?
A: 77.8* %

Q: With `COc1cccc2c1C(=O)c1c(O)c3c(c(O)c1C2=O)C[C@@](O)(C(=O)CO)C[C@@H]3O[C@H]1C[C@H](N)[C@H](O)[C@H](C)O1` [Doxorubicin, doxorubicin] as the compound, how does the “efficacy” value [2] read?
A: not active as a monotherapy or in combination with Cpd 1

Q: What does the source list for `CN(C)/N=N/c1[nH]cnc1C(N)=O` [DTIC, dacarbazine, reference compound]?
A: median time for tumor volume for individual mice to reach 1000 mm^3 [3, 11]: 19 days; percent reduction in tumor volume at Day 28 (%) [3, 11]: 0%; effect on tumor growth ([3]; DTIC 4 mg/kg IP tiw, alone or with Cpd 1 12.5 mg/kg biw): no activity; median time for tumor volume for individual mice to reach 1000 mm^3 [3, 12]: 35 days; percent reduction in tumor volume at Day 28 (%) [3, 12]: 74* %

Q: For `Cc1nc2ccc(F)cc2n1-c1nc(N)c(F)c(Nc2ccc(C(F)(F)F)cc2)n1` [Compound 1, 5-fluoro-2-(6-fluoro-2-methyl-1H-benzo[d]imidazol-1-yl)-N^4-[4-(trifluoromethyl)phenyl]pyrimidine-4,6-diamine], which “inhibition vs vehicle at Day 25” value ([1]; Cpd 1 12.5 mg/kg BIW6 alone) is on record?
A: 35%

Q: And the “delay of the median time for tumor growth to reach 1000 mm^3” value ([1]; Cpd 1 12.5 mg/kg BIW6 alone, vs vehicle)?
A: ~1.7 fold

Q: And the “median time for tumor volume for individual mice to reach 1000 mm^3” value ([1]; Cpd 1 12.5 mg/kg PO biw6 alone)?
A: 31.2 days

Q: What about the “percent reduction … (%)” value ([1]; Cpd 1 12.5 mg/kg PO biw6 alone) of the same compound?
A: 35.4* %

Q: And the “mean tumor volume on Day 42” value ([1]; Cpd 1 12.5 mg/kg alone, all mice euthanized)?
A: 1508 mm^3

Q: What about the “mean tumor volume on Day 25” value ([1]; Cpd 1 12.5 mg/kg alone, ~163 mm^3 at start of dosing) of the same compound?
A: 983 mm^3

Q: What about the AUC ([4]; Dose in Mouse 10 mg/kg) of the same compound?
A: 21000 ng·h/mL

Q: What about the Cmax ([4]; Dose in Mouse 10 mg/kg) of the same compound?
A: 1100 ng/mL

Q: What about the AUC ([4]; Dose in Mouse 12.5 mg/kg) of the same compound?
A: 26200 ng·h/mL

Q: And the Cmax ([4]; Dose in Mouse 12.5 mg/kg)?
A: 1380 ng/mL

Q: And the “minimum effective amount for a 70 kg human subject, for Cmax” value ([5]; targeting free drug at 12.5 mg/kg in the mouse)?
A: about 124 mg

Q: What about the “minimum effective amount for a 70 kg human subject, for Cmax” value ([5]; targeting total drug at 12.5 mg/kg in the mouse) of the same compound?
A: about 226 mg

Q: What about the “median time for tumor volume for individual mice to reach 1000 mm^3” value ([3]; Cpd 1 12.5 mg/kg PO biw alone) of the same compound?
A: 23 days

Q: And the “percent reduction … (%)” value ([3]; Cpd 1 12.5 mg/kg PO biw alone)?
A: 21%

Q: What about the “mean tumor volume on Day 32” value ([3]; Cpd 1 12.5 mg/kg biw alone, all mice euthanized) of the same compound?
A: 1607 mm^3

Q: And the “mean tumor volume on Day 28” value ([3]; Cpd 1 12.5 mg/kg biw alone, ~222 mm3 at start of dosing)?
A: 1388 mm3

Q: And the AUC(0-t) ([6]; read-out: target AUCLast)?
A: 13100 ng·h/mL

Q: What about the Cmax ([6]; read-out: target Cmax) of the same compound?
A: 679 ng/mL

Q: What about the “patients with a mixed/partial response” value [7] of the same compound?
A: 2/31

Q: What about the “patients with stable disease” value [7] of the same compound?
A: 5/31

Q: And the MTD [8]?
A: 40 mg/kg

Source: US20220152024A1, “COMBINATIONS USEFUL IN A METHOD FOR TREATING SARCOMA” (PTC THERAPEUTICS, INC., priority 2019, published 2022)
